For this assay, the target named is Dihydroorotate dehydrogenase (quinone), mitochondrial (Homo sapiens, UniProt Q02127). In words: DHODH enzymatic assay. How it is done: To detect DHODH enzyme activities, dichloroindophenol (DCIP) is added as the final electron acceptor in the assay. DCIP can accept electrons from the reduced coenzyme Q generated in the assay, or from dihydroorotate (DHO) via FMN by binding presumably to the ubiquinone pocket. DCIP solutions are blue, with an intense absorbance around 600 nm, but becomes colorless upon reduction (J. Biol. Chem. (1986) 261, 11386). The assay buffer contained […], pH 7.5, 150 mM NaCl, 0.5 mM EDTA, and 0.1% Triton X-100 in MilliQ water. Substrate consisting of 20 mM DHO, 5mM CoQ6, and 1mM DCIP in assay buffer, initiates the reaction. The assay is run in end-point mode by quenching the reaction with the potent DHODH inhibitor brequinar. Absorbance measurements were obtained using the BMG Phera Star plate-reading spectrophotomer. Purified human DHODH was purchased from Proteros (cat. No. PR-0044). Chemicals were purchased from Sigma-Aldrich, Teknova, and Avanti Polar Lipids. Liquid handling was performed using Labcyte Echo and Formulatrix Tempest.
Chain of Dihydroorotate dehydrogenase (quinone), mitochondrial (Q02127 whole entry): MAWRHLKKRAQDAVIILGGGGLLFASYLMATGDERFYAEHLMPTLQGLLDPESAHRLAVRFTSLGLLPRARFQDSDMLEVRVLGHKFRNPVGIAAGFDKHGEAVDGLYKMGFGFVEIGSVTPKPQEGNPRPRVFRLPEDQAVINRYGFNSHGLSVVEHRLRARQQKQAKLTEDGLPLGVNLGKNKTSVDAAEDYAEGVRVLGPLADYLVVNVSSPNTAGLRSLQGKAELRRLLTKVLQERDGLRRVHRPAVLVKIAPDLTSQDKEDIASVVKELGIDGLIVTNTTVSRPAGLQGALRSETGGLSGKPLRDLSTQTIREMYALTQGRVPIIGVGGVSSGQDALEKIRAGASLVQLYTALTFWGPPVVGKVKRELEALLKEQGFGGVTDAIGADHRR
Broadly, the IC50 is the concentration that inhibits the measured activity by half. Read a high IC50 as weaker potency. `Cc1cn(-c2cc(O[C@@H](C)C(F)(F)F)c(C(=O)Nc3c(F)cccc3Cl)cc2F)nc1[C@@H](C)O` (relative stereo) [WO2022070069, Example 1] had an IC50 of 0.48 nM.

In turn, `Cc1cn(-c2cc(O[C@@H](C)C(F)(F)F)c(C(=O)Nc3c(F)cccc3Cl)cc2F)nc1[C@H](C)O` (relative stereo) [WO2022070069, Example 2] registered an IC50 of 0.3 nM. For `Cc1cn(-c2cc(O[C@@H](C)C(F)(F)F)c(C(=O)Nc3c(C)n[nH]c3Cl)cc2F)nc1[C@@H](C)O` (relative stereo) [WO2022070069, Example 4], the IC50 is 0.22 nM. Regarding `Cc1cn(-c2cc(O[C@@H](C)C(F)(F)F)c(C(=O)Nc3c(C)n[nH]c3Cl)cc2F)nc1[C@H](C)O` (relative stereo) [WO2022070069, Example 5], half-maximal inhibition (IC50) required 0.26 nM. Regarding `Cc1cn(-c2cc(O[C@@H](C)C(F)(F)F)c(C(=O)Nc3c(F)cccc3Cl)cc2F)nc1C(C)(C)O` [WO2022070069, Example 3], half-maximal inhibition (IC50) required 0.5 nM. Compared with the last compound, the IC50 is about 1.9-fold higher. The value for `Cc1cn(-c2cc(O[C@@H](C)C(F)(F)F)c(C(=O)Nc3c(C)n[nH]c3Cl)cc2F)nc1C(C)(C)O` [WO2022070069, Example 6] was 0.38 nM.

Values taken from BindingDB's records for patent WO2022070069 (JANSSEN BIOTECH, INC., 2022).
